Results from patent US20160046618A1, “Cyclopropyl Fused Thiazin-2-Amine Compounds as Beta-Secretase Inhibitors and Methods of Use” (AMGEN INC., priority 2014, published 2016).

Tests used:
[1] = target: human recombinant BACE2 (Homo sapiens (Human), UniProt Q9Y5Z0); assay: In vitro enzymatic BACE2 FRET assay; assay type: biochemical; details: read-out: IC50 IP (μM) BACE2 enzyme
How it was run: (§1)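 Read-out: dequenched fluorescence, excitation 488 nm, emission 590 nm, after proteolysis of a quenched peptide spanning the BACE cleavage site. Substrate at 50 nM, 1 h incubation, termination by Tris addition to neutral pH.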

[2] = target: human recombinant BACE1 (Homo sapiens (Human), UniProt P56817); assay: In vitro enzymatic BACE1 FRET assay; assay type: biochemical; details: read-out: IC50 IP (μM) BACE1 enzyme
Sequence of human recombinant BACE1 (P56817 46-501): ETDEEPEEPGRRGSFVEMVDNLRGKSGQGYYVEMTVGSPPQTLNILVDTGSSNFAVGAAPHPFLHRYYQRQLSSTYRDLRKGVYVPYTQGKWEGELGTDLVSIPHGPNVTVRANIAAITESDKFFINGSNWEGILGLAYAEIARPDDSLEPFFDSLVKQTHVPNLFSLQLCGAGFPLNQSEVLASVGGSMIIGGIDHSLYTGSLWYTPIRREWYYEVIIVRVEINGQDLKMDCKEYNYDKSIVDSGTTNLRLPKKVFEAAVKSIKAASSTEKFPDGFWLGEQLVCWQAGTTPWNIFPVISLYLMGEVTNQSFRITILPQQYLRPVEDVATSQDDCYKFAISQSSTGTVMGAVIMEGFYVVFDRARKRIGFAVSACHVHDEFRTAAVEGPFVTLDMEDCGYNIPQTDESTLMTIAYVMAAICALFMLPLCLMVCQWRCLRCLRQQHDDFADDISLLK
How it was run: as §1

[3] = tested on: Aβ40 in conditioned medium of cells stably expressing Amyloid Precursor Protein (APP); assay: In vitro BACE-1 cell-based assay (Aβ40 sandwich ELISA); details: read-out: IC50 IP (μM) BACE1 cell
How it was run: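 Read-out: time-resolved fluorescence (Streptavidin-Europium) of Aβ40 captured by pAb40 and detected with biotinylated 6E10 from supernatants of APP-stable cells. Cells were exposed to compound for 24 h, 10-point dose response, top dose 100 μM or 10 μM, 0.1% DMSO. IC50 fitted to percent of control.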

[4] = target: Recombinant Cat D (Homo sapiens (Human), UniProt P07339); assay: In vitro enzymatic Cathepsin D (Cat D) FRET assay; assay type: biochemical; details: read-out: IC50 IP (μM) CatD
Sequence of Recombinant Cat D (P07339 65-412): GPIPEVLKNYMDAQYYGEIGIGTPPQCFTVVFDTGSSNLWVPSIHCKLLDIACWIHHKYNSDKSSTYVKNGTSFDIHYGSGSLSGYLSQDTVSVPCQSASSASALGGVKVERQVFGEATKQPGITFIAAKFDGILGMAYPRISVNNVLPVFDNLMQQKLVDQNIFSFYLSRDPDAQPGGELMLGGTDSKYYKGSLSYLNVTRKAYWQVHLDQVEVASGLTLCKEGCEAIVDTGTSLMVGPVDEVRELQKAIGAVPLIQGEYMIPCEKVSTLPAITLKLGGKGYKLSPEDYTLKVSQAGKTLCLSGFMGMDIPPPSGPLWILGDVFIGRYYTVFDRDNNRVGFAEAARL
How it was run: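 Cleavage of a 20 nM FRET peptide by CHO-derived Cat D over 1 h at pH 3.5 (citrate buffer with CHAPS, 10% DMSO final). Endpoint fluorescence is read after Tris quench.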

Sequence of human recombinant BACE2 (Q9Y5Z0 63-518): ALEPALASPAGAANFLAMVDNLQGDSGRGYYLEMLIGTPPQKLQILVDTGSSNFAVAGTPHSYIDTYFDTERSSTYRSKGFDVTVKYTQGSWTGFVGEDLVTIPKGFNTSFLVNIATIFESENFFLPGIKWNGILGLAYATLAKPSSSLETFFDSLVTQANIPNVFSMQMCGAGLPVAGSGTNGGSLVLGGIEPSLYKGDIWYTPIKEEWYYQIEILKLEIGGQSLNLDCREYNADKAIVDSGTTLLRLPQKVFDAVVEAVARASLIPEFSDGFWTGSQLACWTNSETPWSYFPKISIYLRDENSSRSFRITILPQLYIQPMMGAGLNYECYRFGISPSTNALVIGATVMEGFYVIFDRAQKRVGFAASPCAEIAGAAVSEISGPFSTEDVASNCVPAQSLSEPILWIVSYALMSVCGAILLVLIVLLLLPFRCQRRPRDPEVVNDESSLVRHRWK

Compound | IC50 [1] | IC50 [2] | IC50 [3] | IC50 [4]
COc1ncc(NC(=O)c2ccc(Cl)cn2)cc1[C@@]1(C)N=C(N)S[C@@]2(CF)C[C@H]21 [Example 624, N-(5-((1S,5S,6S)-3-amino-1-(fluoromethyl)-5-methyl-2-thia-4-azabicyclo[4.1.0]hept-3-en-5-yl)-6-methoxy-3-pyridinyl)-5-chloro-2-pyridinecarboxamide] | 0.00394 µM | 0.0298 µM | 0.0435 µM | > 400 µM
C#CCOc1cnc2c(Nc3cnc(OC)c([C@@]4(C)N=C(N)S[C@@]5(CF)C[C@H]54)c3)ncnc2c1 [Example 625, N-(5-((1S,5S,6S)-3-amino-1-(fluoromethyl)-5-methyl-2-thia-4-azabicyclo[4.1.0]hept-3-en-5-yl)-6-methoxy-3-pyridinyl)-7-(2-propyn-1-yloxy)pyrido[3,2-d]pyrimidin-4-amine] | 0.401 µM | 0.0309 µM | 0.014 µM | 730 µM
COc1ncc(Nc2nccc3nc(OCc4ncco4)cnc23)cc1[C@@]1(C)N=C(N)S[C@@]2(CF)C[C@H]21 [Example 626, N-(5-((1S,5S,6S)-3-amino-1-(fluoromethyl)-5-methyl-2-thia-4-azabicyclo[4.1.0]hept-3-en-5-yl)-6-methoxy-3-pyridinyl)-2-(1,3-oxazol-2-ylmethoxy)pyrido[3,4-b]pyrazin-5-amine] | 0.2 µM | 0.0164 µM | 0.00509 µM | 1080 µM
COC[C@]12C[C@H]1[C@@](C)(c1cc(Nc3nccc4cc(OC)cnc34)cc(F)c1F)N=C(N)S2 [Example 629, N-(3-((1S,5S,6S)-3-amino-1-(methoxymethyl)-5-methyl-2-thia-4-azabicyclo[4.1.0]hept-3-en-5-yl)-4,5-difluorophenyl)-3-methoxy-1,7-naphthyridin-8-amine] | 0.0582 µM | 0.0365 µM | 0.0205 µM | 2880 µM
C#CCOc1cnc2c(Nc3cc(F)c(F)c([C@@]4(C)N=C(N)S[C@@]5(S(C)(=O)=O)C[C@H]54)c3)nccc2n1 [Example 630, N-(3-((1R,5S,6S)-3-amino-5-methyl-1-(methylsulfonyl)-2-thia-4-azabicyclo[4.1.0]hept-3-en-5-yl)-4,5-difluorophenyl)-2-(2-propyn-1-yloxy)pyrido[3,4-b]pyrazin-5-amine] | 0.00547 µM | 0.000443 µM | 0.00528 µM | 74.9 µM
C#CCOc1cnc2c(Nc3ccc(F)c([C@@]4(C)N=C(N)S[C@@]5(C(=O)N6CCCC6)C[C@H]54)c3)nccc2n1 [Example 632, N-(3-((1S,5S,6S)-3-amino-5-methyl-1-(1-pyrrolidinylcarbonyl)-2-thia-4-azabicyclo[4.1.0]hept-3-en-5-yl)-4-fluorophenyl)-2-(2-propyn-1-yloxy)pyrido[3,4-b]pyrazin-5-amine] | 0.00302 µM | 0.000715 µM | 0.000535 µM | 961 µM
C#CCOc1cnc(C(=O)Nc2ccc(F)c([C@@]3(C)N=C(N)S[C@@]4(C(=O)N5CCCC5)C[C@H]43)c2)cn1 [Example 633, N-(3-((1S,55,6S)-3-amino-5-methyl-1-(1-pyrrolidinylcarbonyl)-2-thia-4-azabicyclo[4.1.0]hept-3-en-5-yl)-4-fluorophenyl)-5-(2-propyn-1-yloxy)-2-pyrazinecarboxamide] | 0.00165 µM | 0.00036 µM | 0.000224 µM | 67.5 µM
C[C@]1(c2cc(NC(=O)c3cnc(OCC(F)(F)F)cn3)ccc2F)N=C(N)S[C@@]2(C(=O)N3CCCC3)C[C@H]21 [Example 634, N-(3-((1S,5S,6S)-3-amino-5-methyl-1-(1-pyrrolidinylcarbonyl)-2-thia-4-azabicyclo[4.1.0]hept-3-en-5-yl)-4-fluorophenyl)-5-(2,2,2-trifluoroethoxy)-2-pyrazinecarboxamide] | 0.00951 µM | 0.000758 µM | 0.000616 µM | 660 µM
COCCOc1cnc2c(Nc3ccc(F)c([C@@]4(CF)N=C(N)S[C@@]5(CF)C[C@H]54)c3)nccc2n1 [Example 635, N-(3-((1S,5S,6S)-3-amino-1,5-bis(fluoromethyl)-2-thia-4-azabicyclo[4.1.0]hept-3-en-5-yl)-4-fluorophenyl)-2-(2-methoxyethoxy)pyrido[3,4-b]pyrazin-5-amine] | 0.192 µM | 0.00832 µM | 0.0208 µM | > 400 µM
C[C@]1(c2cc(Nc3ncnc4cc(F)cnc34)cc(F)c2F)N=C(N)S[C@H]2C[C@H]21 [Example 636, (1S,5S,6S)-5-(2,3-difluoro-5-((7-fluoropyrido[3,2-d]pyrimidin-4-yl)amino)phenyl)-5-methyl-2-thia-4-azabicyclo[4.1.0]hept-3-en-3-amine] | 0.0298 µM | 0.0918 µM | 0.411 µM | 996 µM
C[C@]1(c2cc(NC(=O)c3ccc(Cl)cn3)cnc2F)N=C(N)S[C@H]2C[C@H]21 [Example 637, N-(5-((1S,5S,6S)-3-Amino-5-methyl-2-thia-4-azabicyclo[4.1.0]hept-3-en-5-yl)-6-fluoropyridin-3-yl)-5-chloropicolinamide] | 0.00261 µM | 0.0213 µM | 0.0121 µM | > 400 µM
C[C@]1(c2cc(Nc3nccc4[nH]c(=O)cnc34)cnc2F)N=C(N)S[C@H]2C[C@H]21 [Example 638, 5-((5-((1S,5S,6S)-3-amino-5-methyl-2-thia-4-azabicyclo[4.1.0]hept-3-en-5-yl)-6-fluoropyridin-3-yl)amino)pyrido[3,4-b]pyrazin-2(1H)-one] | 0.0314 µM | 0.0625 µM | 0.0517 µM | > 400 µM
C#CCOc1cnc2c(Nc3cnc(F)c([C@@]4(C)N=C(N)S[C@H]5C[C@H]54)c3)nccc2n1 [Example 639, (1S,5S,6S)-5-(2-fluoro-5-((2-(prop-2-yn-1-yloxy)pyrido[3,4-b]pyrazin-5-yl)amino)pyridin-3-yl)-5-methyl-2-thia-4-azabicyclo[4.1.0]hept-3-en-3-amine] | 0.0401 µM | 0.00157 µM | 0.00213 µM | 381 µM
C[C@]1(c2cc(Nc3nccc4cc(C#N)cnc34)cnc2F)N=C(N)S[C@H]2C[C@H]21 [Example 641, 8-((5-((1S,5S,6S)-3-amino-5-methyl-2-thia-4-azabicyclo[4.1.0]hept-3-en-5-yl)-6-fluoro-3-pyridinyl)amino)-1,7-naphthyridine-3-carbonitrile] | 0.00815 µM | 0.0188 µM | 0.00799 µM | 1430 µM
Cc1cc(OCc2ncco2)cnc1C(=O)Nc1ccc(F)c([C@@]2(C)N=C(N)S[C@@]3(C(F)F)C[C@@H]23)c1 [Example 642, N-(3-((1S,5S,6S)-3-amino-1-(difluoromethyl)-5-methyl-2-thia-4-azabicyclo[4.1.0]hept-3-en-5-yl)-4-fluorophenyl)-3-methyl-5-(1,3-oxazol-2-ylmethoxy)-2-pyridinecarboxamide] | 0.114 µM | 0.00642 µM | 0.0351 µM | 434 µM
Cc1cc(OCc2ncco2)cnc1C(=O)Nc1cc(F)c(F)c([C@@]2(C)N=C(N)S[C@@]3(C(F)F)C[C@@H]23)c1 [Example 643, N-(3-((1S,5S,6S)-3-amino-1-(difluoromethyl)-5-methyl-2-thia-4-azabicyclo[4.1.0]hept-3-en-5-yl)-4,5-difluorophenyl)-3-methyl-5-(1,3-oxazol-2-ylmethoxy)-2-pyridinecarboxamide] | 0.134 µM | 0.00246 µM | 0.0328 µM | 751 µM
COC[C@]12C[C@H]1[C@@](C)(c1cc(NC(=O)c3ncc(OCc4ncco4)cc3C)ccc1F)N=C(N)S2 [Example 644, N-(3-((1S,5S,6S)-3-amino-1-(methoxymethyl)-5-methyl-2-thia-4-azabicyclo[4.1.0]hept-3-en-5-yl)-4-fluorophenyl)-3-methyl-5-(1,3-oxazol-2-ylmethoxy)-2-pyridinecarboxamide] | 0.207 µM | 0.014 µM | 0.0137 µM | > 400 µM
COC[C@]12C[C@H]1[C@@](C)(c1cc(NC(=O)c3ncc(OCc4ncco4)cc3C)cc(F)c1F)N=C(N)S2 [Example 646, N-(3-((1S,5S,6S)-3-amino-1-(methoxymethyl)-5-methyl-2-thia-4-azabicyclo[4.1.0]hept-3-en-5-yl)-4,5-difluorophenyl)-3-methyl-5-(1,3-oxazol-2-ylmethoxy)-2-pyridinecarboxamide] | 0.211 µM | 0.00656 µM | 0.013 µM | 865 µM
C#C[C@H](C)Oc1cnc(C(=O)Nc2cc(F)c(F)c([C@@]3(C)N=C(N)S[C@@]4(C(F)F)C[C@@H]34)c2)c(C)c1 [Example 647, N-(3-((1S,5S,6S)-3-amino-1-(difluoromethyl)-5-methyl-2-thia-4-azabicyclo[4.1.0]hept-3-en-5-yl)-4,5-difluorophenyl)-3-methyl-5-(((1S)-1-methyl-2-propyn-1-yl)oxy)-2-pyridinecarboxamide] | 0.342 µM | 0.0236 µM | 0.259 µM | 389 µM
